Earlier results as cited in publication PMC4546328, “Effects of Inhibiting Dipeptidyl Peptidase-4 (DPP4) in Cows with Subclinical Ketosis” (PLoS ONE, 2015).

Parameters: method as in earlier work
Details: prescribing information; primarily small increase of neutrophil granulocytes counts

effect on WBC: slight increase in WBC
SMILES: N[C@@H](CC(=O)N1CCn2c(nnc2C(F)(F)F)C1)Cc1cc(F)c(F)cc1F [sitagliptin]
